Data as given in patent US9738613B2, “Substituted 1,2,3-triazoles as antitumor agents” (National Central University, priority 2015, dated 2017).
pIC50: −log10 of the molar value. Structures can show the parent of a compound that is named as a salt. Where two headings read alike, the source gives them in different places.

Tests used:
PC-3 cells = assay: Sulforhodamine B (SRB) growth inhibition assay, PC-3 cells; type: cell-based, Human
Method: (§1) Human hormone-refractory prostate cancer cell lines PC-3 and DU-145 were from American Type Culture Collection (Rockville, MD). Cells were cultured in RPMI 1640 medium with 10% FBS (v/v) and penicillin (100 U/ml)/streptomycin (100 μg/ml). Cultures were maintained in a humidified incubator at 37° C. in 5% CO2/95% air.
(§2) Cells were seeded in 96-well plates in medium with 5% FBS. After 24 hours, cells were fixed with 10% TCA to represent cell population at the time of drug addition (T0). After additional incubation of DMSO or the compound for 48 hours (PC-3 cells) or 72 hours (DU145 cells), cells were fixed with 10% TCA and SRB at 0.4% (w/v) in 1% acetic acid was added to stain cells. Unbound SRB was washed out by 1% acetic acid and SRB bound cells were solubilized with 10 mM Trizma base. The absorbance was read at a wavelength of 515 nm. Using the following absorbance measurements, such as time zero (T0), control growth (C), and cell growth in the presence of the compound (Tx), the percentage growth was calculated at each of the compound concentrations levels. Percentage growth inhibition was calculated as: [1−(Tx−T0)/(C−T0)]×100%. Growth inhibition of 50% (IC50) is determined at the compound concentration which results in 50% reduction of total protein increase in control cells during the compound incubation. Data are expressed as mean±SEM of three to five determinations.

DU-145 cells = assay: Sulforhodamine B (SRB) growth inhibition assay, DU-145 cells; type: cell-based, Human
Method: as §1, §2

[1] = human hormone-refractory prostate cancer PC-3 cells, 48 hours incubation, read-out: PC-3 cells IC50
[2] = Homo sapiens, PC-3 cells, 48 hours, bound stated, read-out: IC50 in PC-3 cells (text summary of Table 1)
[3] = Homo sapiens, DU-145 cells, 72 hours, bound stated, read-out: IC50 in DU-145 cells (text summary of Table 1)
[4] = human hormone-refractory prostate cancer DU-145 cells, 72 hours incubation, read-out: DU-145 cells IC50

Compound	pIC50 (PC-3 cells; [1])	pIC50 (PC-3 cells; [2])	pIC50 (DU-145 cells; [3])	pIC50 (DU-145 cells; [4])
2-Amino-2-((1-pentadecyl-1H-1,2,3-triazol-4-yOmethyl)propane-1,3-diol hydrochloride [Compound 5]	5.46			
CCCCCCCCCCCCCCCCn1cc(CC(N)(CO)CO)nn1 [Compound 2, 2-Amino-2-((1-hexadecyl-1H-1,2,3-triazol-4-yl)methyl)propane-1,3-diol hydrochloride]	5.48	> 5.30	> 5.00	5.28
CCCCCCCCCCCCCCn1cc(CC(N)(CO)CO)nn1 [Compound 1, 2-Amino-2-((1-tetradecyl-1H-1,2 ,3-triazol-4-yl)methyl)propane-1,3-diol hydrochloride]	5.31	> 5.30	> 5.30	5.33
CCCCCCCCCCCCCCCCCCn1cc(CCC(N)(CO)CO)nn1 [Compound 4, 2-Amino-2-(2-(1-octadecyl-1H-1,2,3-triazol-4-yl)ethyl)propane-1,3-diol hydrochloride]	5.44	> 5.30	> 5.30	5.62
2-Amino-2-(4-(1-tetradecyl-1H-1,2,3-triazol-4-yl)butyl)propane-1,3-diol hydrochloride [Compound 10]	5.05			5.21
CCCCCCCCCCCCCCCCCCn1cc(CC(N)(CO)CO)nn1 [Compound 3, 2-Amino-2-((1-octadecyl-1H-1,2,3-triazol-4-yl)methyl)propane-1,3-diol hydrochloride]	5.35	> 5.30	> 5.00	5.24

The next lines start with the values.

pIC50 (PC-3 cells; [1])	pIC50 (PC-3 cells; [2])	pIC50 (DU-145 cells; [3])	pIC50 (DU-145 cells; [4])	Compound
5.27	> 5.00	> 5.30	5.38	CCCCCCCCCCCCCn1cc(CC(N)(CO)CO)nn1 [Compound 11, 2-Amino-2-((1-tridecyl-1H-1,2,3-triazol-4-yl)methyl)propane-1,3-diol hydrochloride]
5.21	> 5.00			CCCCCCCCCCCCCCCCn1cc(CCC(N)(CO)CO)nn1 [Compound 6, 2-Amino-2-(2-(1-hexadecyl-1H-1,2,3-triazol-4-yl)ethyl)propane-1,3-diol hydrochloride]
5.42	> 5.30	> 5.00	5.21	CCCCCCCCCCCCCCCCCCCCn1cc(CC(N)(CO)CO)nn1 [Compound 8, 2-Amino-2-((1-icosyl-1H-1,2,3-triazol-4-yl)methyl)propane-1,3-diol hydrochloride]
5.38	> 5.30	> 5.00	5.27	CCCCCCCCCCCCCCn1cc(CCCC(N)(CO)CO)nn1 [Compound 9, 2-Amino-2-(3-(1-tetradecyl-1H-1,2,3-triazol-4-yl)propyl)propane-1,3-diol hydrochloride]
5.52	> 5.30	> 5.30	5.33	CCCCCCCCCCCCCCCCCCCCn1cc(CC(CO)(COC)NC)nn1 (stereo not shown) [Compound 12, 3-(1-Icosyl-1H-1,2,3-triazol-4-yl)-2-(methoxymethyl)-2-(methylamino)propan-1-ol]
5.10	> 5.00		< 5.00	CCCCCCCCCCCCCCCCCCn1cc(CC(N)(C(=O)OCC)C(=O)OCC)nn1 [Compound 7, Diethyl 2-amino-2-((1-octadecyl-1H-1,2,3-triazol-4-yl)methyl)malonate hydrochloride]
